Reference: patent US12286429B2, “5-oxo-1,2,3,5,8,8a-hexahydroindolizine-3-carboxamide derivatives useful as a factor XIa inhibitors” (Janssen Pharmaceutica NV, priority 2021, dated 2025)

Legend:
Factor XIa = Factor XIa (Homo sapiens, UniProt P03951); experiment: Factor XIa inhibition assay utilizing a fluorophore-quencher pair peptide substrate (FLINT); type: biochemical; conditions: 11-point, 3-fold serial dilution, top 100 nM; 30 min preincubation; 15 μM 5Fam-KLTRAETV-K5Tamra substrate; kinetic reads over 30 min; read-out: FXIa Inhibition IC50
In short: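 FXIa ([…]) preincubated 30 min with compound (11-point, 3-fold, top 100 nM, 2% DMSO) in Tris pH 7.5, NaCl, CaCl2, BSA, CHAPS; 15 μM 5Fam-KLTRAETV-K5Tamra substrate then added. Fluorescence (485/520 nm) read kinetically over 30 min at room temperature; IC50 by 4-parameter fit.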

human plasma kallikrein = human plasma kallikrein (Homo sapiens, UniProt P03952); experiment: Kallikrein inhibition assay utilizing a quenched AMC peptide substrate (FLINT); type: biochemical; conditions: 11-point, 3-fold serial dilution, top 1 μM; 30 min preincubation; 2 nM kallikrein; 50 μM Z-Gly-Pro-Arg-AMC; kinetic reads over 30 min
In short: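 Human plasma kallikrein (2 nM final) was pre-incubated 30 min at room temperature with compound (11-point 3-fold series, top 1 μM, 2% DMSO) in Tris pH 7.5, NaCl, CaCl2, BSA, CHAPS buffer. Reaction started with 50 μM Z-Gly-Pro-Arg-AMC (KM 40 μM), and fluorescence (340/440 nm) was read kinetically over 30 min. IC50 came from a 4-parameter logistic fit.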

Chain of human plasma kallikrein (P03952 391-638 limits assumed): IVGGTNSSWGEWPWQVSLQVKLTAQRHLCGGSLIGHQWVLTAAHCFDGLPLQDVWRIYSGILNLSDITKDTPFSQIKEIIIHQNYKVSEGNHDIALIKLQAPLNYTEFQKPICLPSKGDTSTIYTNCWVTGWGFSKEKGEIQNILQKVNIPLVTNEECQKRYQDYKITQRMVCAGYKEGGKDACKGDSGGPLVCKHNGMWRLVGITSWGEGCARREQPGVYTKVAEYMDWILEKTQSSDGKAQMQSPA
Chain of human plasma kallikrein (P03952 20-390 partner limits assumed): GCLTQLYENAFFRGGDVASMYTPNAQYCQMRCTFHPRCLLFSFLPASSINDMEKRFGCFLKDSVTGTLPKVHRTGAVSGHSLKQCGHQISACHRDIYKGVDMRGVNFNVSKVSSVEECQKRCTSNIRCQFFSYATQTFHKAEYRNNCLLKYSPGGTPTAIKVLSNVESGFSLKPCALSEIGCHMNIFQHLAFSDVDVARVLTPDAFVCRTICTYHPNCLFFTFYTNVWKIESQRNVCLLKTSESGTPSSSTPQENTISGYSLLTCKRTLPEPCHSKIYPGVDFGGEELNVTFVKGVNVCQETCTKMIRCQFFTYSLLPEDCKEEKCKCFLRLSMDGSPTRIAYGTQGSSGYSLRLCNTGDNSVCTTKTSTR
Chain of Factor XIa (P03951 388-625 limits assumed): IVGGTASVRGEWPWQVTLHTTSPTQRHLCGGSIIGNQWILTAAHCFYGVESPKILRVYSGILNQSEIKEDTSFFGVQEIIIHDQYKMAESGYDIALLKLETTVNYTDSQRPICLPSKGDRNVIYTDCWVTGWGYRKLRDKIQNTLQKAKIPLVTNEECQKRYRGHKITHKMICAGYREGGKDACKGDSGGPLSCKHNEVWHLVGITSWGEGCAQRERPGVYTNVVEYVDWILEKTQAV
Chain of Factor XIa (P03951 19-387 partner limits assumed): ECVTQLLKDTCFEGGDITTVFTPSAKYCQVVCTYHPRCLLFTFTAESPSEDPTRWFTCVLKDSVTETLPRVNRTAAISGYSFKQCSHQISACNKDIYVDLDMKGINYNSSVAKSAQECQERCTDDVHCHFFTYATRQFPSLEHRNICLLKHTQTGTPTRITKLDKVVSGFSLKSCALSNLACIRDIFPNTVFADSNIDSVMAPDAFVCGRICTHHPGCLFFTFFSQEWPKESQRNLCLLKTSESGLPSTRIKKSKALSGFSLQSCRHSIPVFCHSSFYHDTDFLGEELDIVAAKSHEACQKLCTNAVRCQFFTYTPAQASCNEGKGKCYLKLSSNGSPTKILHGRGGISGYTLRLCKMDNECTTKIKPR

SMILES | IC50 (Factor XIa) | IC50 (human plasma kallikrein)
Nc1ccc2cc(NC(=O)[C@@H]3CC[C@@H]4CC(c5c(-n6cnnn6)ccc(Cl)c5F)=CC(=O)N43)ccc2n1 [ID No. 6, (3S,8aR)—N-(2-Aminoquinolin-6-yl)-7-(3-chloro-2-fluoro-6-(1H-tetrazol-1-yl)phenyl)-5-oxo-1,2,3,5,8,8a-hexahydroindolizine-3-carboxamide] | 8 nM | 14.3 nM
CC1(C)C(=O)Nc2ccc(NC(=O)[C@@H]3CC[C@@H]4CC(c5c(-n6cnnn6)ccc(Cl)c5F)=CC(=O)N43)cc21 [ID No. 7, (3S,8aR)-7-(3-Chloro-2-fluoro-6-(1H-tetrazol-1-yl)phenyl)-N-(3,3-dimethyl-2-oxoindolin-5-yl)-5-oxo-1,2,3,5,8,8a-hexahydroindolizine-3-carboxamide] | 65 nM | 131 nM
O=C(Nc1ccc2c(c1)C1(CCCC1)C(=O)N2)[C@@H]1CC[C@@H]2CC(c3c(-n4cnnn4)ccc(Cl)c3F)=CC(=O)N21 [ID No. 8, (3S,8aR)-7-(3-Chloro-2-fluoro-6-(1H-tetrazol-1-yl)phenyl)-5-oxo-N-(2′-oxospiro[cyclopentane-1,3′-indolin]-5′-yl)-1,2,3,5,8,8a-hexahydroindolizine-3-carboxamide] | 62.1 nM | 178 nM
O=C(Nc1ccc2nccc(O)c2c1)[C@@H]1CC[C@@H]2CC(c3c(-n4cnnn4)ccc(Cl)c3F)=CC(=O)N21 [ID No. 9, (3S,8aR)-7-(3-Chloro-2-fluoro-6-(1H-tetrazol-1-yl)phenyl)-N-(4-hydroxyquinolin-6-yl)-5-oxo-1,2,3,5,8,8a-hexahydroindolizine-3-carboxamide] | 16.6 nM | 20.2 nM
O=C(Nc1ccc2ncc(F)cc2c1)[C@@H]1CC[C@@H]2CC(c3c(-n4cnnn4)ccc(Cl)c3F)=CC(=O)N21 [ID No. 10, (3S,8aR)-7-(3-Chloro-2-fluoro-6-(1H-tetrazol-1-yl)phenyl)-N-(3-fluoroquinolin-6-yl)-5-oxo-1,2,3,5,8,8a-hexahydroindolizine-3-carboxamide] | 10.8 nM | 22.5 nM
CN(C)c1ccc2cc(NC(=O)[C@@H]3CC[C@@H]4CC(c5c(-n6cnnn6)ccc(Cl)c5F)=CC(=O)N43)ccc2n1 [ID No. 11, (3S,8aR)-7-(3-Chloro-2-fluoro-6-(1H-tetrazol-1-yl)phenyl)-N-(2-(dimethylamino)quinolin-6-yl)-5-oxo-1,2,3,5,8,8a-hexahydroindolizine-3-carboxamide] | 38.8 nM | 66.2 nM
O=C1Cc2cc(NC(=O)[C@@H]3CC[C@@H]4CC(c5c(-n6cnnn6)ccc(Cl)c5F)=CC(=O)N43)ccc2N1 [ID No. 12, (3S,8aR)-7-(3-Chloro-2-fluoro-6-(1H-tetrazol-1-yl)phenyl)-5-oxo-N-(2-oxoindolin-5-yl)-1,2,3,5,8,8a-hexahydroindolizine-3-carboxamide] | 18.2 nM | 71.7 nM
O=C1CCc2cc(NC(=O)[C@@H]3CC[C@@H]4CC(c5c(-n6cnnn6)ccc(Cl)c5F)=CC(=O)N43)ccc2N1 [ID No. 13] | 12.9 nM | 68.4 nM
CCn1cnc2ccc(NC(=O)[C@@H]3CC[C@@H]4CC(c5c(-n6cnnn6)ccc(Cl)c5F)=CC(=O)N43)cc2c1=O [ID No. 14, (3S,8aR)-7-(3-Chloro-2-fluoro-6-(1H-tetrazol-1-yl)phenyl)-N-(3-ethyl-4-oxo-3,4-dihydroquinazolin-6-yl)-5-oxo-1,2,3,5,8,8a-hexahydroindolizine-3-carboxamide] | 22.7 nM | 59.6 nM
O=C(Nc1ccc2c(c1)C(F)(F)C(=O)N2)[C@@H]1CC[C@@H]2CC(c3c(-n4cnnn4)ccc(Cl)c3F)=CC(=O)N21 [ID No. 15, (3S,8aR)-7-(3-Chloro-2-fluoro-6-(1H-tetrazol-1-yl)phenyl)-N-(3,3-difluoro-2-oxoindolin-5-yl)-5-oxo-1,2,3,5,8,8a-hexahydroindolizine-3-carboxamide] | 36.8 nM | 55.7 nM
Cn1nc2ccc(NC(=O)[C@@H]3CC[C@@H]4CC(c5c(-n6cnnn6)ccc(Cl)c5F)=CC(=O)N43)cc2n1 [ID No. 16, (3S,8aR)-7-(3-Chloro-2-fluoro-6-(1H-tetrazol-1-yl)phenyl)-N-(2-methyl-2H-benzo[d][1,2,3]triazol-5-yl)-5-oxo-1,2,3,5,8,8a-hexahydroindolizine-3-carboxamide] | 25 nM | 45.3 nM
O=C(Nc1ccc(-c2noc(=O)[nH]2)cc1)[C@@H]1CC[C@@H]2CC(c3c(-n4cnnn4)ccc(Cl)c3F)=CC(=O)N21 [ID No. 17, (3S,8aR)-7-(3-Chloro-2-fluoro-6-(1H-tetrazol-1-yl)phenyl)-5-oxo-N-(4-(5-oxo-4,5-dihydro-1,2,4-oxadiazol-3-yl)phenyl)-1,2,3,5,8,8a-hexahydroindolizine-3-carboxamide] | 3.4 nM | 60.1 nM
O=C(Nc1ccc2nc[nH]c(=O)c2c1)[C@@H]1CC[C@@H]2CC(c3c(-n4cnnn4)ccc(Cl)c3F)=CC(=O)N21 [ID No. 18, (3S,8aR)-7-(3-Chloro-2-fluoro-6-(1H-tetrazol-1-yl)phenyl)-5-oxo-N-(4-oxo-3,4-dihydroquinazolin-6-yl)-1,2,3,5,8,8a-hexahydroindolizine-3-carboxamide] | 6.1 nM | 9.2 nM
Cn1cc2cc(NC(=O)[C@@H]3CC[C@@H]4CC(c5c(-n6cnnn6)ccc(Cl)c5F)=CC(=O)N43)ccc2n1 [ID No. 19, (3S,8aR)-7-(3-Chloro-2-fluoro-6-(1H-tetrazol-1-yl)phenyl)-N-(2-methyl-2H-indazol-5-yl)-5-oxo-1,2,3,5,8,8a-hexahydroindolizine-3-carboxamide] | 39.4 nM | 169 nM

Now from value to molecule:

IC50 (Factor XIa) | IC50 (human plasma kallikrein) | SMILES
82.9 nM | 38.8 nM | CC1(C)C[C@@H](C(=O)Nc2ccc3nccnc3c2)N2C(=O)C=C(c3c(-n4cnnn4)ccc(Cl)c3F)CC21 (single isomer, unassigned) [ID No. 59, (3S,8aR*)-7-[3-Chloro-2-fluoro-6-(tetrazol-1-yl)phenyl]-1,1-dimethyl-5-oxo-N-quinoxalin-6-yl-2,3,8,8a-tetrahydroindolizine-3-carboxamide]
6.7 nM | 29.7 nM | Nc1noc2cc(NC(=O)[C@@H]3CCC4CC(c5c(-n6cnnn6)ccc(Cl)c5F)=CC(=O)N43)ccc12 (single isomer, unassigned) [ID No. 60, (3S,8aR*)—N-(3-Amino-1,2-benzoxazol-6-yl)-7-[3-chloro-2-fluoro-6-(tetrazol-1-yl)phenyl]-5-oxo-2,3,8,8a-tetrahydro-1H-indolizine-3-carboxamide]
8.9 nM | 52.6 nM | Nc1noc2cc(NC(=O)[C@@H]3CCC4CC(c5c(-n6cnnn6)ccc(Cl)c5F)=CC(=O)N43)ccc12 (single isomer, unassigned) [ID No. 61, (3S,8aS*)—N-(3-Amino-1,2-benzoxazol-6-yl)-7-[3-chloro-2-fluoro-6-(tetrazol-1-yl)phenyl]-5-oxo-2,3,8,8a-tetrahydro-1H-indolizine-3-carboxamide]
13.3 nM | 17.2 nM | CC1(C)C[C@@H](C(=O)Nc2ccc3nccnc3c2)N2C(=O)C=C(c3c(-n4cnnn4)ccc(Cl)c3F)CC21 (single isomer, unassigned) [ID No. 62, (3S,8aS*)-7-[3-Chloro-2-fluoro-6-(tetrazol-1-yl)phenyl]-1,1-dimethyl-5-oxo-N-quinoxalin-6-yl-2,3,8,8a-tetrahydroindolizine-3-carboxamide]
0.6 nM | 20.3 nM | O=C(Nc1ccc(-c2nc(=O)o[nH]2)cc1)[C@@H]1CCC2CC(c3c(-n4cnnn4)ccc(Cl)c3F)=CC(=O)N21 (single isomer, unassigned) [ID No. 63, (3S,8aR*)-7-[3-Chloro-2-fluoro-6-(tetrazol-1-yl)phenyl]-5-oxo-N-[4-(5-oxo-2H-1,2,4-oxadiazol-3-yl)phenyl]-2,3,8,8a-tetrahydro-1H-indolizine-3-carboxamide]
1.9 nM | 36.6 nM | O=C(Nc1ccc(-c2nnn[nH]2)cc1)[C@@H]1CC[C@H]2CC(c3c(-n4cnnn4)ccc(Cl)c3F)=CC(=O)N21 (single isomer, unassigned) [ID No. 65, (3S,8aS*)-7-[3-Chloro-2-fluoro-6-(tetrazol-1-yl)phenyl]-5-oxo-N-[4-(1H-tetrazol-5-yl)phenyl]-2,3,8,8a-tetrahydro-1_H-indolizine-3-carboxamide]
0.8 nM | 19.2 nM | O=C(Nc1ccc(-c2nnn[nH]2)cc1)[C@@H]1CCC2CC(c3c(-n4cnnn4)ccc(Cl)c3F)=CC(=O)N21 (single isomer, unassigned) [ID No. 66, (3S,8aR*)-7-[3-Chloro-2-fluoro-6-(tetrazol-1-yl)phenyl]-5-oxo-N-[4-(1H-tetrazol-5-yl)phenyl]-2,3,8,8a-tetrahydro-1H-indolizine-3-carboxamide]
3.9 nM | 7.5 nM | C[C@H]1C[C@@H](C(=O)Nc2ccc3nccnc3c2)N2C(=O)C=C(c3c(-n4cnnn4)ccc(Cl)c3F)C[C@@H]12 (single isomer, unassigned) [ID No. 79, (1S*,3S,8aS*)-7-[3-Chloro-2-fluoro-6-(tetrazol-1-yl)phenyl]-1-methyl-5-oxo-N-quinoxalin-6-yl-2,3,8,8a-tetrahydro-1H-indolizine-3-carboxamide]
45.9 nM | 59.5 nM | C[C@H]1C[C@@H](C(=O)Nc2ccc3nccnc3c2)N2C(=O)C=C(c3c(-n4cnnn4)ccc(Cl)c3F)C[C@H]12 (single isomer, unassigned) [ID No. 80, (1S*,3S,8aR*)-7-[3-Chloro-2-fluoro-6-(tetrazol-1-yl)phenyl]-1-methyl-5-oxo-N-quinoxalin-6-yl-2,3,8,8a-tetrahydro-1H-indolizine-3-carboxamide]
